# Patent US11447495B2, “Substituted benzo[f]imidazo[1,5-a][1,4]diazepines as GABA(a) receptor modulators” (priority 2016, dated 2022)
# What was measured:
# HEK293 = assay: Cytotoxicity, CellTiter-Glo cell viability assay, kidney cells; assay type: cell-based, human; conditions: human, HEK293 (HEK293T) human embryonic kidney cells
# Experimental: The cytotoxicity of compounds may be evaluated by treating HEK293 human embryonic kidney cells with increasing concentrations of compounds for 24-48 hours followed by the quantification of living cells using Cell-Titer Glo (Promega).
# Compounds with increased cytotoxicity can be identified using an in vitro cytotoxicity assay. Therefore, human embryonic kidney 293T (HEK293T) cell lines were purchased (ATCC) and cultured in 75 cm2 flasks (CellStar). Cells were grown in DMEM/High Glucose (Hyclone, #SH3024301) media to which non-essential amino acids (Hyclone, #SH30238.01), 10 mM HEPES (Hyclone, #SH302237.01), 5×106 units of penicillin and streptomycin (Hyclone, #SV30010), and 10% of heat inactivated fetal bovine serum (Gibco, #10082147) were added. Cells were harvested using 0.05% Trypsin (Hyclone, #SH3023601). The cell viability assay was evaluated using CellTiter-Glo™ Luminescent Cell Viability Assay Kit (Promega, Madison, Wis.), which contains luciferase and all its substrate except ATP. The controls for the cytotoxicity assay used were (E)-10-(bromotriphenylphosphoranyl)decyl 4-(4-(tert-butyl)phenyl)-4-oxobut-2-enoate (400 μM in DMSO, positive control) and DMSO (negative control). All luminescence readings were performed on a Tecan Infinite M1000 plate reader. Small volume transfers were performed on the Tecan Freedom EVO liquid handling system with a 100 nL pin tool transfer (V&P Scientific). Serial dilutions were done in 96-well polypropylene plates (Corning, #3365) and assays were conducted in 384-well white optical bottom plates. The assays were carried out in quadruplet in three independent runs. The data were normalized to the controls and if possible analyzed by nonlinear regression (GraphPad Prism).
# lung cells = assay: Lung cell proliferation by EdU incorporation; assay type: in vivo; conditions: Ova s/c mice, treated versus non-treated
# Experimental: ASM hyperplasia was determined by incooperation of EdU into the DNA of newly formed cells. Herein, at the end of the ovalbumin sensitization and challenge protocol, mice received a single i.p. injection of EdU (Invitrogen, Carlsbad, Calif.) at a dose of 100 mg/kg. Mice were euthanized 4 hours after injection and the lungs formalin fixed, harvested and paraffin embedded. 6 μm sections of formalin fixed and paraffin embedded lung sections were mounted onto Fisher Superfrost Plus Slides. EdU staining was conducted using Click-iT™ EdU imaging kit (Invitrogen, Carlsbad, Calif.) according to manufacturer's instructions. Briefly lungs were deparaffinized in histoclear and rehydrated in graded ethanol. Tissue sections were washed twice with 3% bovine serum albumin (BSA) in PBS and permeablized with 0.5% Triton X-100 in PBS for 20 minutes. The sections were again washed twice with 3% BSA in PBS and then incubated with a Click-iT™ reaction cocktail containing Click-iT™ reaction buffer, CuSO4, Alexa Fluor® 488 Azide, and reaction buffer additive for 30 minutes in the dark. […] Lung sections of non-treated and GL-II-93 treated Ova s/c mice were analyzed for the incooperation of EdU, a thymidine analog that can be visualized after click chemistry with a fluorescent azide. For the negative control EdU was not injected resulting in no visible fluorescence. […]
# [1] = Pharmacokinetic analysis in blood, lungs and brain; conditions: mouse, 25 mg/kg oral gavage
# [2] = Microsomal stability, human liver microsomes; assay type: in vitro ADME; conditions: 10 μM compound
# Experimental: The metabolic stability of compounds in vivo can be estimated with the stability of compounds in the presence of liver microsomes. Therefore, 4 μL of 1 mM DMSO solution of test compound at a final concentration of 10 μM were preincubated at 37° C. for 5 minutes on a digital heating shaking dry bath (Fischer scientific, Pittsburgh, Pa.) in a mixture containing 282 μL of water, 80 μL of phosphate buffer (0.5 M, pH 7.4) 20 μL of NADPH Regenerating System Solution A (BD Bioscience, San Jose, Calif.) and 4 μL of NADPH Regenerating System Solution B (BD Bioscience, San Jose, Calif.) in a total volume of 391.2 μL. Following preincubation, the reaction was initiated by addition of 8.8 μL of either human liver microsomes (BD Gentest, San Jose, Calif.) or mouse liver microsomes (Life technologies, Rockford, Ill.) at a protein concentration of 0.5 mg/mL. Aliquots of 50 μL were taken at time intervals of 0 (without microsomes), 10, 20, 30, 40, 50 and 60 minutes. Each aliquot was added to 100 μL of cold acetonitrile solution containing 1 μM of verapamil HCL as internal standard. This was followed by sonication for 10 seconds and centrifugation at 10,000 rpm for 5 minutes. 100 μL of the supernatant was transferred into Spin-X HPLC filter tubes (Corning Incorporated, NY) and centrifuged at 13,000 rpm for 5 minutes. The filtrate was diluted 100-fold and subsequently analyzed by LC-MS/MS with Shimadzu LCMS 8040, (Shimadzu Scientific Instruments, Columbia, Md.). The ratio of the peak areas of the internal standard and test compound was calculated for every time point and the natural log of the ratio were plotted against time to determine the linear slope (k). The metabolic rate (k*C0/C), half-life (0.693/k), and […] (V*k) were calculated, where k is the slope, C0 is the initial concentration of test compound, C is the concentration of microsomes, and V is the volume of incubation in μL per microsomal protein in mg. All experiments were repeated two time in triplicates.
# [3] = system: α1β3γ2 or α4β3γ2 GABAAR expressing HEK293T cells; assay: Automated patch clamp with EC20 GABA in HEK293T cells; assay type: cell-based; conditions: GABA EC20, 3 seconds application
# [4] = system: human airway smooth muscle; assay: Relaxation of acetylcholine contracted human airway smooth muscle strips; conditions: EC50 acetylcholine, 100 μM compound, 15-60 minutes
SMILES,LD50 HEK293 (Kidney) (HEK293) [µM],proliferation of lung cells (EdU) (lung cells),bioavailability [1],HLM % remaining after 60 min [2] [%],"GABAA receptor subtype selectivity, current response [3]",human airway smooth muscle contractile force [4]
"C[C@H]1N=C(c2ccccc2F)c2cc(Br)ccc2-n2cnc(C(=O)O)c21 [GL-II-93, (R)-8-bromo-6-(2-fluorophenyl)-4-methyl-4H-benzo[f]imidazo[1,5-a][1,4]diazepine-3-carboxylic acid]",>400,Non-treated Ova S/C mice showed a high proliferation rate in comparison to GL-II-93 treated animals,excellent bioavailability,–,–,–
"CCOC(=O)c1ncn2c1[C@@H]1CCCN1C(=O)c1cc(O)ccc1-2 [RJ-02-50, ethyl (S)-7-hydroxy-9-oxo-11,12,13,13a-tetrahydro-9H-benzo[e]imidazo[5,1-c]pyrrolo[1,2-a][1,4]diazepine-1-carboxylate]",>400,–,excellent bioavailability,91.7 ± 0.2,positive α4β3γ2-selective GABAA receptor modulator,–
"O=C1c2cc(O)ccc2-n2cnc(-c3cnco3)c2[C@@H]2CCCN12 [RJ-03-30, (S)-7-hydroxy-1-(oxazol-5-yl)-11,12,13,13a-tetrahydro-9H-benzo[e]imidazo[5,1-c]pyrrolo[1,2-a][1,4]diazepin-9-one]",>400,–,–,91.8 ± 0.2,–,–
"C#Cc1ccc2c(c1)C(c1ccccc1F)=N[C@H](C)c1c(C(=O)O)ncn1-2 [SH-053-2′F-R-CH3-Acid, (R)-8-ethynyl-6-(2-fluorophenyl)-4-methyl-4H-benzo[f]imidazo[1,5-a][1,4]diazepine-3-carboxylic acid]",>400,–,excellent bioavailability,92.0 ± 0.2,–,reduced the constriction of human airway smooth muscle after 15 minutes for a period of at least 60 minutes
